Here are results for 16 compounds from ChEMBL document CHEMBL1221345, “Cytotoxic flavonoids from the leaves of Cryptocarya chinensis” (J Nat Prod, 2010).

Common to all, as to type: functional, cell-based
Assay [1] relates to MCF7. Put plainly: Cytotoxicity against human MCF7 cells after 72 hrs by MTS reduction assay. The note with it: MCF7, 72 h. For orientation: Tetrazolium assays rely on reduction of a dye to a coloured formazan, in cell work by metabolically active cells.
Assay [2] has as its system NCI-H460. Put plainly: Cytotoxicity against human NCI-H460 cells after 72 hrs by MTS reduction assay. The note with it: NCI-H460, 72 h.
In assay [3] the test system is SF-268. As to the kind of experiment: Cytotoxicity against human SF268 cells after 72 hrs by MTS reduction assay. The note with it: SF-268, 72 h.
The subject of assay [4] is KB. Put plainly: Cytotoxicity against human KB cells.

pIC50: −log10 of the molar value. *1 amine or outer side, *2 acyl side, *3 side chain or, on linkers, in order; H or OH if unused. Where a SMILES comes first, the peptide text is derived from it. Bridges are numbered along the chain shown (N, C = ends). Roman numbers before positions name the chains, in order. [ ]: non-standard residue; d: D form. Actinocin(1to9) = Cc1c2oc3c(C)ccc(C(=O)[*:2])c3nc-2c(C(=O)[*:1])c(N)c1=O; NMeV = CN[C@H](C(=O)O)C(C)C; Sar = CNCC(=O)O

A word on the pIC50: it is the IC50 on a negative log10 scale, so that one unit is a factor of ten. A high value points to a small IC50. For `COc1cc(O)c2c(=O)c(OC)c(-c3ccccc3)oc2c1`, the pIC50 in assay [1], in assay [2] and in assay [3] was less than 4.30 each time.
With `CO[C@@H]1CC2=C(C(=O)CC(c3ccccc3)O2)[C@H]2CC(=O)O[C@H]21` (stereo not given in full), the pIC50 in assay [1], in assay [2] and in assay [3] was less than 4.30 throughout.
Consider `COc1cc(O)c2c(=O)c(OC)c(-c3ccccc3)oc2c1OC`, for which the pIC50 in assay [1], in assay [2] and in assay [3] was less than 4.30 each time.
In the case of `CC1=C(C)C(=O)C(CC[C@](C)(O)CCC[C@H](C)CCC[C@H](C)CCCC(C)C)=C(C)C1=O`, the pIC50 is less than 4.30 in assay [1], 4.43 in assay [2] and less than 4.30 in assay [3].
As for `CC(C)=CCC/C(C)=C/CC/C(C)=C/CC/C=C(\C)CC/C=C(\C)CCC=C(C)C`, the negative logarithm of the IC50 (pIC50) in assay [1], in assay [2] and in assay [3] was less than 4.30 throughout.
With `CO[C@H]1CC2=C(C(=O)C[C@@H](c3ccccc3)O2)[C@H]2CC(=O)O[C@@H]12` [7-O-METHYLCRYPTOCHINONE A], the pIC50 in assay [1], in assay [2] and in assay [3] was less than 4.30 throughout.
As for `CO[C@H]1CC2=C(C(=O)C[C@@H](c3ccccc3)O2)[C@@H]2CC(=O)O[C@H]12` [7-O-METHYLCRYPTOCHINONE B], the pIC50 in assay [1], in assay [2] and in assay [3] was less than 4.30 in each case.
Turning to `O=C1C[C@@H]2C3=C(C=C[C@@H]2O1)O[C@@H](c1ccccc1)CC3=O` [CRYPTOCARYANONE A], the pIC50 in assay [1] was 5.29; in assay [2], 5.37; in assay [3], 5.30; in assay [4], 5.60.
For `O=C1C[C@@H]2C3=C(C[C@H](O)[C@@H]2O1)O[C@H](c1ccccc1)CC3=O` [CRYPTOCHINONE A], the pIC50 in assay [1], in assay [2] and in assay [3] was less than 4.30 in each case.
With `O=C1C[C@H]2C3=C(C[C@H](O)[C@H]2O1)O[C@H](c1ccccc1)CC3=O` [CRYPTOCHINONE B], the pIC50 in assay [1], in assay [2] and in assay [3] was less than 4.30 throughout.
With `Cc1c2oc3c(C)ccc(C(=O)N[C@@H]4C(=O)N[C@H](C(C)C)C(=O)N5CCC[C@H]5C(=O)N(C)CC(=O)N(C)[C@@H](C(C)C)C(=O)O[C@@H]4C)c3nc-2c(C(=O)N[C@@H]2C(=O)N[C@H](C(C)C)C(=O)N3CCC[C@H]3C(=O)N(C)CC(=O)N(C)[C@@H](C(C)C)C(=O)O[C@@H]2C)c(N)c1=O` [DACTINOMYCIN] (I: T[dV]P[Sar][NMeV] / II: T[dV]P[Sar][NMeV]; ester I:1-I:C, II:1-II:C; linker I:N-II:N via Actinocin(1to9)), the pIC50 is 6.99 in assay [1], 8.10 in assay [2] and 7.80 in assay [3].
As to `COC(=O)C[C@H]1CC=CC(=O)/C1=C(O)/C=C/c1ccccc1` [INFECTOCARYONE], the pIC50 in assay [1] is 4.61; in assay [2], 4.96; in assay [3], 5.43; in assay [4] it was 5.77.
`COc1c(O)ccc(C(=O)/C=C/c2ccccc2)c1O` [LARREIN]: the pIC50 in assay [1], in assay [2] and in assay [3] was less than 4.30 each time.
As to `COc1cc2oc(-c3ccccc3)cc(=O)c2c(O)c1OC` [MOSLOFLAVONE], the pIC50 in assay [1], in assay [2] and in assay [3] was less than 4.30 throughout.
On to `COc1cc(O)c2c(c1)O[C@H](c1ccccc1)CC2=O` [PINOSTROBIN], for which the pIC50 in assay [1], in assay [2] and in assay [3] was less than 4.30 throughout.
On to `COc1cc(C=O)ccc1O` [VANILLIN], for which the pIC50 in assay [1], in assay [2] and in assay [3] was less than 4.30 throughout.
